Where a name gives a salt, the structure may show the parent alone.
Legend:
[1] = Turnover to metabolites in cryopreserved hepatocytes; conditions: hepatocytes, 20 μM
Procedure: Chromatographic analyses were performed with a Waters Alliance model 2695 HPLC system (Waters Corp., Milford, Mass.) that was equipped with a built-in autosampler. The column eluent was monitored with a model 996 diode array UV detector, set to monitor 250 nm, and a FloOne β Model A525 radioactivity flow detector (Perkin Elmer) with a 250 μL flow cell. Separation of the parent compound from metabolites was accomplished using a Discovery C18 column, 250×4.6 mm, 5 μm (Supelco, Bellefonte, Pa.) at an ambient temperature of approximately 20° C. Mobile phase A was 10 mM ammonium acetate (pH 4.5) and mobile phase B was acetonitrile and they were delivered at 1 mL/min using the gradient described in Table 10. The Ultima Flo M scintillant flow rate was 3 mL/min.
Flo-One analytical software (version 3.65) was utilized to integrate the radioactive peaks. Means and standard deviations were calculated using Microsoft Excel® 2000. Micromass MassLynx software (version 4.0, Waters Corp.) was used for control of LC/MS equipment and recording of data from LC/MS analyses.

[2] = target: T1, human 5-HT1A receptor (Homo sapiens, UniProt P08908); test: [3H]-8-OH-DPAT displacement radioligand binding; conditions: h5-HT1A.CHO cell membranes, read-out: Ki value for 5-HT1A affinity
T1 construct: expressed in transfected cells
T1 sequence (P08908 1-422): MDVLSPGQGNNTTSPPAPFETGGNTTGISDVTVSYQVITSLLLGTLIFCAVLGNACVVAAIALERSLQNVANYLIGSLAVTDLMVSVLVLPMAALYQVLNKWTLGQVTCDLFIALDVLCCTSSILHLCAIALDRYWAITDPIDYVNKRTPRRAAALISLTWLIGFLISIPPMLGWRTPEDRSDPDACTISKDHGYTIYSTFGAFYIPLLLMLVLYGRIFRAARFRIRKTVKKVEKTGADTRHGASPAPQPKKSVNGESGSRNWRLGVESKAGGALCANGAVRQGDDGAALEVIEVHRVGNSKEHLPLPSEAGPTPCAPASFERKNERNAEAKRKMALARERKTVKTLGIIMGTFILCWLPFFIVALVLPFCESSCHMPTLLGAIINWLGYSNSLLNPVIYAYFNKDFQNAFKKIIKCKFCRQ
Procedure: (§1) A Ki value is reported. The in vitro functional activity of the compounds of this invention is determined by measuring the effect of the compound on forskolin-induced adenylate cyclase activity in the same cell line. 5-HT1A agonists, such as the full agonist 8-OH-DPAT, inhibit forskolin-induced adenylate cyclase activity, as measured by a reduction in cAMP levels. The compounds of this invention display agonist activity as shown by its ability to induce a decrease in cAMP levels. An EC50 value is reported and the maximum response of the test compound is reported as the percent of a full agonist response (the maximum response obtained with the full agonist 8-OH-DPAT=100%). This percent is expressed as an Emax value.
(§2) The PCR cloning of the human 5-HT1A receptor subtype from a human genomic library has been described previously (Chanda et al., Mol. Pharmacol., 43:516 (1993)). A stable Chinese hamster ovary cell line expressing the human 5-HT1A receptor subtype (h5-HT1A.CHO cells) was employed throughout this study. Cells were maintained in DMEM supplemented with 10% fetal calf serum, non-essential amino acids and penicillin/streptomycin.
Radioligand binding assays can be performed as described in Dunlop, J. et al., J. Pharmacol. and Toxicol. Methods 40: 47-55 (1998). […] Non-specific binding is determined in the presence of 10 μM 5HT. […]

[3] = target: T1, human 5-HT1A receptor; test: Forskolin-induced adenylate cyclase (cAMP) functional assay in h5-HT1A.CHO cells; type: cell-based
Procedure: as §1
as §2, with “Cells were maintained in DMEM supplemented with 10% fetal calf serum, non-essential amino acids and penicillin/streptomycin.” left out
Measurements can be performed as described in Dunlop, J. et al., supra. […] Functional activity is assessed by treating the cells with forskolin (1 uM final concentration) followed immediately by test compound (6 different concentrations) for an additional 10 min. at 37° C. […]

SMILES	average turnover to metabolites ([1]; both, human, 1 h)	average turnover to metabolites ([1]; both, human, 4 h)	average turnover to metabolites ([1]; dog, 1 h)	average turnover to metabolites ([1]; dog, 4 h)	average turnover to metabolites ([1]; male, rat, 1 h)	average turnover to metabolites ([1]; male, rat, 4 h)	Ki [2]	EC50 ([3]; decrease of forskolin-induced cAMP, read-out: EC50 value for in vitro agonist activity)	Emax ([3]; percent of full agonist response (8-OH-DPAT=100%))
COc1cc(N2CCN(C3CCN(c4ccc(F)c5cccnc45)CC3)CC2)c2ncccc2c1 [[^14C]COMPOUND I, [piperazine-^14C(U)]-5-fluoro-8-(4-(4-(6-methoxyquinolin-8-yl)piperazin-1-yl)piperidin-1-yl)quinoline trisuccinate]	13%	18%	8%	12%	32%	38%			
Oc1cc(N2CCN(C3CCN(c4ccc(F)c5cccnc45)CC3)CC2)c2ncccc2c1 [Metabolite M21, 8-{4-[1-(5-fluoroquinolin-8-yl)piperidin-4-yl]piperazin-1-yl}quinolin-6-ol trihydrochloride]							0.47 nM	0.39 nM	92%
